The values that follow come from US20260152494A1, “CDK2 INHIBITORS AND METHODS OF USING THE SAME” (Cedilla Therapeutics, Inc., priority 2022, published 2026).

The structures appear in SMILES notation.

For one experiment, the target named is T1, CDK2/Cyclin E1 (Homo sapiens, UniProt P24941).
T1 construct: purchased Eurofins 14-475
As to the kind of experiment: CDK2/Cyclin E1 Caliper LabChip EZ Reader mobility shift assay. The class given is biochemical. As to conditions: 2.5 nM CDK2/Cyclin E1, 100 μM ATP, 1.5 μM fluorescent peptide, 30 min preincubation; read-out: Caliper Assay (CDK2/CCNE1): IC50. As for the experimental part:
Example A1: CDK2/Cyclin E1 Caliper Assay
Inhibition of CDK2/Cyclin E1 activity in the presence of compounds of the present disclosure was evaluated using a Caliper LabChip® EZ Reader mobility shift assay. In the assay, CDK2/Cyclin E1 (Eurofins, 14-475) catalyzed the phosphorylation of a fluorescently tagged peptide 5-FAM-QSPKKG-CONH2 (PerkinElmer, FL Peptide 18) which induced a difference in capillary electrophoresis mobility. The peptide substrate and product were measured, and the conversion ratio was used to determine the inhibition (as % activity and IC50 values) of CDK2/Cyclin E1. Reactions contained 50 mM HEPES pH 7.5, 10 mM MgCl2, 1 mM EDTA, 2 mM DTT, 0.01% Brij35, 0.5 mg/mL BSA, 0.1% DMSO, 2.5 nM CDK2/Cyclin E1, 100 μM ATP, and 1.5 μM fluorescent peptide substrate.
Dose titrations of inhibitors in 100% DMSO were combined with 3.25 nM CDK2/Cyclin E1 and 130 μM of ATP in reaction buffer. The mixtures were incubated for 30 minutes before the addition of fluorescent peptide substrate to initiate the kinase reaction. The final conditions were 2.5 nM CDK2/Cyclin E1, 100 μM ATP, and 1.5 μM fluorescent peptide. The reactions were stopped after 100 minutes with the addition of EDTA (400 mM final EDTA concentration). The stopped reactions were analyzed on a Caliper LabChip® EZ Reader II. The conversion ratios were normalized to yield % activity, plotted against compound concentration, and fit to a four-parameter equation to determine the IC50 for each compound.

Experiment [1] concerns Kuramochi cells labeled with mApple-H2B. As to the kind of experiment: IncuCyte cell proliferation assay. The class given is cell-based. The note with it: Kuramochi RB-WT cells, 72 hours, cell count normalized to DMSO. As for the experimental part:
Example A3: IncuCyte® Cell Proliferation Assay
IncuCyte® assay was used to measure the effect of disclosed compounds on cell proliferation. Fluorescent microscopy images of cells were taken immediately after compound treatment and 72 hours later. Image analysis software was used to obtain cell counts as a function of compound concentration. Kuramochi cells labeled with mApple-H2B were seeded on 384-well assay-ready plates. Plates were placed in an IncuCyte® (Sartorius) and scanned at 0 and 72 hours. IncuCyte® software was used to count the number of fluorescent nuclei in each well. The fold change in cell count from 0 to 72 hours in wells treated with increasing compounds concentrations (10 pts, 1/2 log dilution, 20 μM top concentration) was normalized to DMSO control wells. The normalized cell counts were fit with dose response curves and a GI50 was calculated.

With `CN(C(=O)C1CC2(C1)CN(C(=O)c1cncs1)CC2c1nnc(C(F)(F)c2ccc(Cl)c(Cl)c2)o1)C1CC1` (racemic) [Compound I-16, rac-(R)—N-cyclopropyl-8-(5-((3,4-dichlorophenyl)difluoromethyl)-1,3,4-oxadiazol-2-yl)-N-methyl-6-(thiazole-5-carbonyl)-6-azaspiro[3.4]octane-2-carboxamide], the IC50 on CDK2/Cyclin E1 was above 10 µM; in experiment [1], above 20 µM. For `C[C@@H](OCC1CCCCC1)C(NC(=O)[C@@H]1CCOC12CN(C(=O)[C@H]1CC1(C)C)C2)C(=O)N1CCCCC1` (single isomer, unassigned) [I-29 1st], the IC50 on CDK2/Cyclin E1 is above 10 µM; in experiment [1] it was above 20 µM. Taken in the same sequence, the figures for `C[C@@H](OCC1CCCCC1)[C@H](NC(=O)[C@H]1CCOC12CN(C(=O)[C@H]1CC1(C)C)C2)C(=O)N1CCCCC1` (single isomer, unassigned) [I-29 2nd] were above 10 µM and above 20 µM. Taken in the same sequence, the figures for `C[C@@H](OCC1CCCCC1)[C@H](NC(=O)[C@@H]1CCOC12CN(C(=O)[C@H]1CC1(C)C)C2)C(=O)N1CCC[C@H](N)C1` (single isomer, unassigned) [I-31 1st] were above 10 µM and above 20 µM.

As to `C[C@@H](OCC1CCCCC1)[C@H](NC(=O)[C@H]1CCOC12CN(C(=O)[C@H]1CC1(C)C)C2)C(=O)N1CCC[C@H](N)C1` (single isomer, unassigned) [I-31 2nd], the IC50 was above 10 µM at CDK2/Cyclin E1 and above 20 µM in experiment [1]. Taken in the same sequence, the figures for `C[C@@H](OCC1CCCCC1)[C@H](NC(=O)[C@@H]1CCOC12CN(C(=O)[C@H]1CC1(C)C)C2)C(=O)N1CCC[C@@H](N)C1` (single isomer, unassigned) [I-34 1st] were above 10 µM and above 20 µM. For `C[C@@H](OCC1CCCCC1)[C@H](NC(=O)[C@H]1CCOC12CN(C(=O)[C@H]1CC1(C)C)C2)C(=O)N1CCC[C@@H](N)C1` (single isomer, unassigned) [I-34 2nd], in that order: above 10 µM and above 20 µM. Consider `CNC(=O)[C@@H](NC(=O)[C@H]1CCOC12CN(C(=O)[C@H]1CC1(C)C)C2)[C@@H](C)OCC1CCCCC1` (single isomer, unassigned) [I-35 1st], for which the figures for the IC50 (on CDK2/Cyclin E1; in experiment [1]) were above 10 µM and above 20 µM, respectively. Taken in the same sequence, the figures for `CNC(=O)[C@@H](NC(=O)[C@@H]1CCOC12CN(C(=O)[C@H]1CC1(C)C)C2)[C@@H](C)OCC1CCCCC1` (single isomer, unassigned) [I-35 2nd] were above 10 µM and above 20 µM. `O=C(c1cc(F)n[nH]1)N1CC(c2nnc(C(F)(F)c3ccc(Cl)c(Cl)c3)o2)C2(CCOCC2)C1` (stereo not drawn) [Compound I-1]: the values for the IC50 (on CDK2/Cyclin E1; in experiment [1]) were above 10 µM and above 20 µM, respectively. In the case of `O=C(c1cncs1)N1CC(c2nnc(C(F)(F)c3ccc(Cl)c(Cl)c3)o2)C2(CCN(C(=O)[C@H]3CC3(F)F)CC2)C1` (stereo partly drawn) [Compound I-2, (4-(5-((3,4-dichlorophenyl)difluoromethyl)-1,3,4-oxadiazol-2-yl)-2-(thiazole-5-carbonyl)-2,8-diazaspiro[4.5]decan-8-yl)((R)-2,2-difluorocyclopropyl)methanone], the results for the IC50 (at CDK2/Cyclin E1; in experiment [1]) were above 10 µM and above 20 µM, respectively.

On to `O=C(c1cncs1)N1CC(c2nnc(C(F)(F)c3ccc(Cl)c(Cl)c3)o2)C2(CC(C(=O)N3CCC3)C2)C1` (stereo not drawn) [Compound I-3], for which the IC50 in experiment [1] was above 20 µM. For `CC(=O)N1CC(c2nnc(C(F)(F)c3ccc(Cl)c(Cl)c3)o2)C2(CCOCC2)C1` (stereo not drawn) [Compound I-7], the results for the IC50 (at CDK2/Cyclin E1; in experiment [1]) were above 10 µM and above 20 µM, respectively. For `O=C(c1cncs1)N1CC(c2nnc(C(F)(F)c3ccc(Cl)c(Cl)c3)o2)C2(CCS(=O)(=O)CC2)C1` (stereo not drawn) [Compound I-8, (4-(5-((3,4-dichlorophenyl)difluoromethyl)-1,3,4-oxadiazol-2-yl)-8,8-dioxido-8-thia-2-azaspiro[4.5]decan-2-yl)(thiazol-5-yl)methanone], in that order: above 10 µM and above 20 µM. Turning to `O=C(c1cncs1)N1CC(c2nnc(C(F)(F)c3ccc(Cl)c(Cl)c3)o2)C2(CCNCC2)C1` (stereo not drawn) [Compound I-9], the figures for the IC50 (at CDK2/Cyclin E1; in experiment [1]) were above 10 µM and above 20 µM, respectively. For `O=C(c1cnccn1)N1CC(c2nnc(C(F)(F)c3ccc(Cl)c(Cl)c3)o2)C2(CCOCC2)C1` (stereo not drawn) [Compound I-10], in that order: above 10 µM and above 20 µM. For the molecule `O=C(c1cncs1)N1CC(c2nnc(C(F)(F)c3ccc(Cl)c(Cl)c3)o2)C2(CCC2)C1` (stereo not drawn) [Compound I-11, (8-(5-((3,4-dichlorophenyl)difluoromethyl)-1,3,4-oxadiazol-2-yl)-6-azaspiro[3.4]octan-6-yl)(thiazol-5-yl)methanone], the IC50 on CDK2/Cyclin E1 is above 10 µM; in experiment [1], above 20 µM.

`O=C(c1cncs1)N1CC(c2nnc(C(F)(F)c3ccc(Cl)c(Cl)c3)o2)C2(CCOCC2)C1` (stereo not drawn) [Compound I-12, (4-(5-((3,4-dichlorophenyl)difluoromethyl)-1,3,4-oxadiazol-2-yl)-8-oxa-2-azaspiro[4.5]decan-2-yl)(thiazol-5-yl)methanone]: the IC50 at CDK2/Cyclin E1 is above 10 µM; in experiment [1], above 20 µM.

For the molecule `CC(C)(C)OC(=O)N1CCC2(CC1)CN(C(=O)c1cncs1)CC2c1nnc(C(F)(F)c2ccc(Cl)c(Cl)c2)o1` (stereo not drawn) [Compound I-14, tert-butyl 4-(5-((3,4-dichlorophenyl)difluoromethyl)-1,3,4-oxadiazol-2-yl)-2-(thiazole-5-carbonyl)-2,8-diazaspiro[4.5]decane-8-carboxylate], the IC50 was above 10 µM on CDK2/Cyclin E1 and 5 to 20 µM in experiment [1]. Taken in the same sequence, the figures for `CC1(C)C[C@@H]1C(=O)N1CCC2(CC1)CN(C(=O)c1cncs1)CC2c1nnc(C(F)(F)c2ccc(Cl)c(Cl)c2)o1` (stereo partly drawn) [Compound I-15, (4-(5-((3,4-dichlorophenyl)difluoromethyl)-1,3,4-oxadiazol-2-yl)-2-(thiazole-5-carbonyl)-2,8-diazaspiro[4.5]decan-8-yl)((S)-2,2-dimethylcyclopropyl)methanone] were above 10 µM and above 20 µM.

In the case of `COC[C@H]1CCCN(C(=O)[C@@H](NC(=O)[C@@H]2CN(C(=O)c3cncs3)CC23CN([S+]([O-])C(C)(C)C)C3)[C@@H](C)OCC2CCCCC2)C1` (stereo partly drawn) [Compound I-17, (8S)-2-(tert-butylsulfinyl)-N-((2S,3R)-3-(cyclohexylmethoxy)-1-((S)-3-(methoxymethyl)piperidin-1-yl)-1-oxobutan-2-yl)-6-(thiazole-5-carbonyl)-2,6-diazaspiro[3.4]octane-8-carboxamide], the IC50 was 1 to 10 µM at CDK2/Cyclin E1 and above 20 µM in experiment [1]. In the case of `COC[C@H]1CCCN(C(=O)[C@@H](NC(=O)[C@@H]2CN(C(=O)c3cncs3)CC23CN(S(=O)(=O)C2CC2(C)C)C3)[C@@H](C)OCC2CCCCC2)C1` (stereo partly drawn) [Compound I-18], the IC50 on CDK2/Cyclin E1 was in the range of 1 to 10 µM. With `Cc1ccc(CNC(=O)[C@@H]2CN(C(=O)c3cnn(Cc4ccccc4)c3)CC23CN(C(=O)[C@H]2CC2(C)C)C3)nn1` [Compound I-20], the IC50 was above 10 µM at CDK2/Cyclin E1 and above 20 µM in experiment [1]. As to `COC[C@H]1CCCN(C(=O)[C@@H](NC(=O)[C@H]2CN(C(=O)c3cncs3)CC23CN(C(=O)[C@H]2CC2(C)C)C3)[C@@H](C)OCC2CCCCC2)C1` [Compound I-21], the IC50 at CDK2/Cyclin E1 lay within 0.1 to 1 µM; in experiment [1], 5 to 20 µM.

Take `CC(=O)N1C[C@@H](C(N)=O)C2(C1)CN(C(C)=O)C2` [Compound I-22, (S)-2,6-diacetyl-2,6-diazaspiro[3.4]octane-8-carboxamide]: the figures for the IC50 (at CDK2/Cyclin E1; in experiment [1]) were above 10 µM and above 20 µM, respectively.

In the case of `C[C@@H](OCC1CCCCC1)[C@H](NC(=O)C1CSCC12CN(C(=O)[C@H]1CC1(C)C)C2)C(=O)N1CCCCC1` (stereo partly drawn) [Compound I-23, N-((2S,3R)-3-(cyclohexylmethoxy)-1-oxo-1-(piperidin-1-yl)butan-2-yl)-2-((S)-2,2-dimethylcyclopropane-1-carbonyl)-6-thia-2-azaspiro[3.4]octane-8-carboxamide], the IC50 is above 10 µM on CDK2/Cyclin E1 and above 20 µM in experiment [1]. With `CC1(C)C[C@@H]1C(=O)N1CC2(CN(C(=O)c3cnn(Cc4ccccc4)c3)CC2C#N)C1` (stereo partly drawn) [Compound I-40, 6-(1-benzyl-1H-pyrazole-4-carbonyl)-2-((S)-2,2-dimethylcyclopropane-1-carbonyl)-2,6-diazaspiro[3.4]octane-8-carbonitrile], the IC50 on CDK2/Cyclin E1 was above 10 µM.
